# Patent US20250099466A1 (BRISTOL-MYERS SQUIBB COMPANY, priority 2021, published 2025)
# Tested on: subjects undergoing elective total knee replacement surgery
# Test: Phase 2 study of milvexian versus enoxaparin after elective total knee replacement: venous thromboembolism events
# Format: in vivo, human
# Settings: for Major VTE % / Major VTE n / Total VTE % / Total VTE RR vs. Enoxaparin / Total VTE n: mITT, Day 14; for Asymptomatic distal DVT % / Asymptomatic distal DVT n / Asymptomatic proximal DVT % / Asymptomatic proximal DVT n / Death n / Distal DVT % / Distal DVT n / Non-fatal PE n / Proximal DVT % / Proximal DVT n / Symptomatic distal DVT n / Symptomatic proximal DVT n / Non-fatal PE % / Symptomatic distal DVT %: through day 14; for incidence of segments with the most severe DVT severity score of 3: subjects with DVT on venography
# Description: [table] […] The study used a prospective, randomized, open-label, blinded endpoint (PROBE) design. […] The enoxaparin control arm likewise completed its pre-specified randomization of 300 subjects. […] FIG. 1 provides the study design, including number of subjects randomized into each study arm. […] An adaptive design was used to optimize patient recruitment for the dose-response evaluation. The number of dose regimens, the option to implement additional once daily dosing regimens, and the randomization ratio were based on the results of the periodic reviews and interim analysis. […] Randomization was performed postoperatively using a centralized interactive web-based response system and was stratified by geographic region of the study centers. […] Enoxaparin was given subcutaneously at a dose of 40 mg once daily and was started either the evening before or 12 to 24 hours after surgery. […] The primary efficacy outcome was venous thromboembolism, defined as the composite of asymptomatic deep-vein thrombosis (detected by mandatory unilateral venography performed 10 to 14 days after surgery), confirmed symptomatic venous thromboembolism (symptomatic deep-vein thrombosis of the leg or nonfatal pulmonary embolism), or death. […] Factor XI antisense oligonucleotide for prevention of venous thrombosis. N Engl J Med 2015; 372:232-40; Fuji et al., A dose-ranging study evaluating the oral factor Xa inhibitor edoxaban for the prevention of venous thromboembolism in patients undergoing total knee arthroplasty. J Thromb Haemost 2010; 8:2458-68). The major secondary efficacy outcomes were: (a) proximal deep-vein thrombosis (symptomatic or asymptomatic), (b) distal deep-vein thrombosis (symptomatic or asymptomatic) (c) nonfatal pulmonary embolism, and (d) death. An exploratory efficacy outcome was the extent of venous thrombosis on venography, which was assessed by the adjudication committee using predefined categories. […] Statistics in Medicine 2014; 33:1646-61). […] Venograms, assessed by independent blinded adjucators, were used to identify, and to assign DVT severity scores to, subjects with DVT. […] For each evaluated segment, a severity score was assigned depending on the presence and, if present, extension of the clot in the segment of the vein. Severity scores, on a scale of 0-3, were assigned as follows: 0=no clot; 1=less than ⅓; 2=greater than or equal to ⅓ but less than ⅔; and 3=greater than ⅔ the length of the vein segment.
# [1] = milvexian all regimens combined
# [2] = milvexian combined BID regimens
structure (smiles),measurement,setting,value
"C[C@@H]1CCC[C@H](n2cnc(-c3cc(Cl)ccc3-n3cc(Cl)nn3)cc2=O)c2cc(ccn2)-c2c(cnn2C(F)F)NC1=O [milvexian, (5R,9S)-9-(4-(5-chloro-2-(4-chloro-1H-1,2,3-triazol-1-yl)phenyl)-6-oxopyrimidin-1(6H)-yl)-21-(difluoromethyl)-5-methyl-21H-3-aza-1(4,2)-pyridina-2(5,4)-pyrazolacyclononaphan-4-one]",Major VTE %,milvexian 25 mg BID,0.8%
same,Major VTE n,milvexian 25 mg BID,1 n
same,Total VTE %,milvexian 25 mg BID,21.0%
same,Total VTE RR vs. Enoxaparin,milvexian 25 mg BID,0.97
same,Total VTE n,milvexian 25 mg BID,27 n
same,Major VTE %,"milvexian 25 mg BID, listed as Milvexian",(0.8%)
same,Asymptomatic distal DVT %,milvexian 25 mg BID,20.2%
same,Asymptomatic distal DVT n,milvexian 25 mg BID,26 n
same,Asymptomatic proximal DVT %,milvexian 25 mg BID,0.8%
same,Asymptomatic proximal DVT n,milvexian 25 mg BID,1 n
same,Death n,milvexian 25 mg BID,0 n
same,Distal DVT %,milvexian 25 mg BID,20.2%
same,Distal DVT n,milvexian 25 mg BID,26 n
same,Non-fatal PE n,milvexian 25 mg BID,0 n
same,Proximal DVT %,milvexian 25 mg BID,0.8%
same,Proximal DVT n,milvexian 25 mg BID,1 n
same,Symptomatic distal DVT n,milvexian 25 mg BID,0 n
same,Symptomatic proximal DVT n,milvexian 25 mg BID,0 n
same,Major VTE n,milvexian 25 mg once daily,0 n
same,Total VTE %,milvexian 25 mg once daily,(25.0%)
same,Total VTE RR vs. Enoxaparin,milvexian 25 mg once daily,1.00
same,Total VTE n,milvexian 25 mg once daily,7 n
same,Major VTE %,milvexian 50 mg BID,0.8%
same,Major VTE n,milvexian 50 mg BID,1 n
same,Total VTE %,milvexian 50 mg BID,11.3%
same,Total VTE RR vs. Enoxaparin,milvexian 50 mg BID,0.53
same,Total VTE n,milvexian 50 mg BID,14 n
same,Major VTE %,"milvexian 50 mg BID, listed as Milvexian",(0.8%)
same,incidence of segments with the most severe DVT severity score of 3,milvexian 50 mg BID,0%
same,Asymptomatic distal DVT %,milvexian 50 mg BID,10.5%
same,Asymptomatic distal DVT n,milvexian 50 mg BID,13 n
same,Asymptomatic proximal DVT n,milvexian 50 mg BID,0 n
same,Death n,milvexian 50 mg BID,0 n
same,Distal DVT %,milvexian 50 mg BID,10.5%
same,Distal DVT n,milvexian 50 mg BID,13 n
same,Non-fatal PE %,milvexian 50 mg BID,0.8%
same,Non-fatal PE n,milvexian 50 mg BID,1 n
same,Proximal DVT n,milvexian 50 mg BID,0 n
same,Symptomatic distal DVT n,milvexian 50 mg BID,0 n
same,Symptomatic proximal DVT n,milvexian 50 mg BID,0 n
same,Major VTE %,milvexian 50 mg once daily,1.6%
same,Major VTE n,milvexian 50 mg once daily,2 n
same,Total VTE %,milvexian 50 mg once daily,(23.6%)
same,Total VTE RR vs. Enoxaparin,milvexian 50 mg once daily,1.15
same,Total VTE n,milvexian 50 mg once daily,30 n
same,Major VTE %,"milvexian 50 mg once daily, listed as Milvexian",(1.6%)
same,Major VTE %,milvexian 100 mg BID,1.5%
same,Major VTE n,milvexian 100 mg BID,2 n
same,Total VTE %,milvexian 100 mg BID,9.0%
same,Total VTE RR vs. Enoxaparin,milvexian 100 mg BID,0.42
same,Total VTE n,milvexian 100 mg BID,12 n
same,Major VTE %,"milvexian 100 mg BID, listed as Milvexian",(1.5%)
same,incidence of segments with the most severe DVT severity score of 3,milvexian 100 mg BID,1.52%
same,Asymptomatic distal DVT %,milvexian 100 mg BID,7.5%
same,Asymptomatic distal DVT n,milvexian 100 mg BID,10 n
same,Asymptomatic proximal DVT %,milvexian 100 mg BID,0.7%
same,Asymptomatic proximal DVT n,milvexian 100 mg BID,1 n
same,Death n,milvexian 100 mg BID,0 n
same,Distal DVT %,milvexian 100 mg BID,7.5%
same,Distal DVT n,milvexian 100 mg BID,10 n
same,Non-fatal PE %,milvexian 100 mg BID,0.7%
same,Non-fatal PE n,milvexian 100 mg BID,1 n
same,Proximal DVT %,milvexian 100 mg BID,0.7%
same,Proximal DVT n,milvexian 100 mg BID,1 n
same,Symptomatic distal DVT %,milvexian 100 mg BID,0.7%
same,Symptomatic distal DVT n,milvexian 100 mg BID,1 n
same,Symptomatic proximal DVT n,milvexian 100 mg BID,0 n
same,Major VTE n,milvexian 200 mg BID,0 n
same,Total VTE %,milvexian 200 mg BID,7.6%
same,Total VTE RR vs. Enoxaparin,milvexian 200 mg BID,0.37
same,Total VTE n,milvexian 200 mg BID,10 n
same,incidence of segments with the most severe DVT severity score of 3,milvexian 200 mg BID,2.73%
same,Asymptomatic distal DVT %,milvexian 200 mg BID,7.6%
same,Asymptomatic distal DVT n,milvexian 200 mg BID,10 n
same,Asymptomatic proximal DVT n,milvexian 200 mg BID,0 n
same,Death n,milvexian 200 mg BID,0 n
same,Distal DVT %,milvexian 200 mg BID,7.6%
same,Distal DVT n,milvexian 200 mg BID,10 n
same,Non-fatal PE n,milvexian 200 mg BID,0 n
same,Proximal DVT n,milvexian 200 mg BID,0 n
same,Symptomatic distal DVT n,milvexian 200 mg BID,0 n
same,Symptomatic proximal DVT n,milvexian 200 mg BID,0 n
same,Major VTE n,milvexian 200 mg once daily,0 n
same,Total VTE %,milvexian 200 mg once daily,(6.5%)
same,Total VTE RR vs. Enoxaparin,milvexian 200 mg once daily,0.30
same,Total VTE n,milvexian 200 mg once daily,8 n
same,incidence of segments with the most severe DVT severity score of 3,milvexian 200 mg once daily,0%
same,Total VTE %,[1],13.6%
same,Total VTE n,[1],108 n
same,reduction of total VTE compared to enoxaparin,milvexian at total daily doses of ≥200 mg,> 50%
same,Total VTE %,[2],12.2%
same,Total VTE n,[2],63 n
same,Asymptomatic distal DVT %,[2],11.4%
same,Asymptomatic distal DVT n,[2],59 n
same,Asymptomatic proximal DVT %,[2],0.4%
same,Asymptomatic proximal DVT n,[2],2 n
same,Death n,[2],0 n
same,Distal DVT %,[2],11.4%
same,Distal DVT n,[2],59 n
same,Non-fatal PE %,[2],0.4%
same,Non-fatal PE n,[2],2 n
same,Proximal DVT %,[2],0.4%
same,Proximal DVT n,[2],2 n
same,Symptomatic distal DVT %,[2],0.2%
same,Symptomatic distal DVT n,[2],1 n
same,Symptomatic proximal DVT n,[2],0 n
